In ChEMBL document CHEMBL2029201, “Synthesis of chalcone derivatives as potential anti-diabetic agents” (2012):

Each compound was assayed on 3T3-L1 (assay: Antidiabetic activity in mouse 3T3L1 cells assessed as […] from cell culture medium using 450 mg/dL D-glucose at 30 ug/mL after 24 hrs (reference value: 310 +/- 4 mg/dl)).
Type: functional

Compound	Activity [mg/dL]
COc1ccc(/C=C/C(=O)c2cccc(Cl)c2)cc1	287
COc1ccc(/C=C/C(=O)c2ccccc2I)cc1	210
COc1cccc(/C=C/C(=O)c2ccccc2I)c1	210
COc1ccc(/C=C/C(=O)c2ccccc2Cl)cc1	234
O=C(/C=C/c1cccc(OCc2ccccc2)c1)c1cccc(I)c1	238
COc1ccc(/C=C/C(=O)c2ccccc2Br)cc1	230
O=C(/C=C/c1ccccc1)c1ccccc1I	223
O=C(/C=C/c1ccccc1)c1cc(Cl)ccc1O	236
COc1cccc(/C=C/C(=O)c2cccc(Cl)c2)c1	255
